Assays:
[1] = Pooled human plasma (Li-heparin); conditions: room temperature, up to 2 h
[2] = human whole blood (K-EDTA); conditions: room temperature, up to 2 h

Substance: Ac-[D-Leu]LLLRVK-amba
- not cleaved [1]: no detectable degradation over at least 2 h
- not cleaved [2]: no detectable degradation over at least 2 h

— article PMC10747822 (Pharmaceutics, 2023)
